# Laboratory results as given in publication PMC7313430, “Heme-Dependent ER Stress Apoptosis: A Mechanism for the Selective Toxicity of the Dihydroartemisinin, NSC735847, in Colorectal Cancer Cells” (Frontiers in Oncology, 2020).
# Key:
# FHC cells = assay: MTS cell viability assay, non-tumorigenic colon cells; type: cell-based; conditions: Homo sapiens, 24 h treatment
# Experimental: (§1) The human colon cancer cell lines HT29 and HCT116 were cultured in McCoy's 5A medium (Sigma Aldrich, St. Louis, MO) containing 10% heat-inactivated fetal bovine serum (FBS), penicillin (100 units/ml), and streptomycin (100 μg/ml). The non-tumorigenic colon cell line, FHC, was cultured in DMEM: F12 (1:1) medium supplemented with 10% heat inactivated FBS, 25 mM HEPES (Thermo Fisher Scientific Inc., IL), 10 ng/ml cholera toxin (Sigma Aldrich, St. Louis, MO), 0.005 mg/ml insulin (Thermo Fisher Scientific Inc., IL), 0.005 mg/ml, transferrin (Sigma Aldrich, St. Louis, MO), 100 ng/ml hydrocortisone (Sigma Aldrich, St. Louis, MO), 20 ng/mL human recombinant epidermal growth factor (Thermo Fisher Scientific Inc., IL), 100 units/ml penicillin, and 100 μg/ml streptomycin.
# (§2) Cells were cultured in 96-well-plates for 48 h before treatment. Serum-free media containing different agents was added to the cells at the concentration and time period described in the figure legend. MTS reagent (Promega, Madison, WI) was then added to each well and the absorbance was measured at 495 nm as directed by the manufacturer. In the presence of MTS reagent, the absorbance reading is proportional to the number of viable cells. The half-maximal inhibitory concentration (IC50) of the tested compounds is the concentration that reduces the viability of cells by 50%. IC50 was calculated after 24 h of treatment ([30], [31]) as described previously ([32]–[34]) from dose-response curves (log drug concentration vs. percentage viability from untreated cells) generated by non-linear regression analysis with GraphPad Prism 5 software (GraphPad Software, San Diego, California).
# HT29 cells = assay: MTS cell viability assay, colon cancer cells HT29; type: cell-based, human; conditions: for IC50: Homo sapiens, HT-29, MTS viability, 24 h treatment; for selective cytotoxicity toward colon cancer cells vs FHC: HT-29/HCT-116 compared to FHC; for effect of pretreatment on NSC735847-mediated cell death: HT29, MTS, pretreatment with the agent, then NSC735847 (10 μM; 5 μM for HTF) 24 h
# Experimental: as §1, §2
# HCT116 cells = assay: MTS cell viability assay, colon cancer cells HCT116; type: cell-based, human; conditions: for IC50: Homo sapiens, HCT-116, MTS viability, 24 h treatment; for cytotoxic activity against HCT-116 cells: 3.1-25 μM
# Experimental: as §1, §2
# [1] = test system: caspase 3/7 activity in HT29 cells; assay: Caspase-Glo 3/7 activity assay in HT29; type: cell-based, human; conditions: for tumor selectivity of apoptosis induction (caspase 3/7, words): 16 h, HT29 compared to HCT-116 and FHC; for effect of pretreatment on NSC735847-induced caspase 3/7 activity: HT29, pretreatment 1 h (GSK 10 μM, SAL 50 μM), then 10 μM NSC735847 16 h
# Experimental: The cells were plated in white-walled 96-well-plates and then they were cultured at 37°C for 48 h. Serum-free culture medium containing the appropriate concentration of different agents was added to the cells for the indicated period of time. Caspase-Glo 3/7 reagent (Promega, Madison, WI) was added to each well and luminescence was detected as directed by the manufacturer. The Caspase-Glo 3/7 kit measures the activity of the executioner caspases 3 and 7 using the luminogenic substrate (Z-DEVD-aminoluciferin) as substrate.
# [2] = test system: P-PERK, P-eIF2α, CHOP10, PARP, caspase-3, ferritin in HT29 cells; assay: Western blot of ER stress and apoptosis proteins in HT29; type: cell-based, human; conditions: for effect of pretreatment on NSC735847-induced CHOP10 expression: HT29, pretreatment (GSK 10 μM, salubrinal 50 μM, SA 10 mM), then 10 μM NSC735847 8 h
# Experimental: Western blot analysis was conducted as described previously ([35]). Briefly, the cells were cultured in 100 mm dishes for 48 h before treatment. The cells were then treated as described in the figure legends. For vehicle-treated samples, DMSO was added to serum-free culture medium at a maximum concentration of 0.1% (v/v). After experimentation, the cells were washed twice with phosphate buffer saline (PBS) and then 100 μl of Triton lysis buffer [25 mM HEPES, 100 mM NaCl, 1 mM EDTA, 10% (v/v) glycerol, 1% (v/v) Triton X-100], containing protease and […] inhibitors, was added to the cells. Protein concentrations were determined by using BCA reagents (Thermo Fisher Scientific Inc., IL). Equal concentrations of each sample were loaded onto SDS–PAGE gels and protein bands transferred to nitrocellulose membranes using semi-dry transfer cells (TRANS-BLOTSD; Bio-Rad Laboratories, Hercules, CA). The membranes were incubated for 2 h at room temperature in Odyssey blocking buffer (LI-COR Biosciences, Lincoln, NE). Membranes were then incubated overnight at 4C with primary antibody followed by 1 h of incubation at room temperature with secondary antibody. All primary antibodies were used at a dilution of 1:1,000 except anti-GAPDH and anti-CHOP10 antibodies which were used at 1:10,000 and 1:500 dilutions, respectively. All secondary antibodies were used at a dilution of 1:15,000. Protein bands were visualized using Odyssey® CLx digital fluorescence imaging system (LI-COR, Lincoln, Nebraska). Band intensities were quantified by using ImageJ software ([36]).
# [3] = test system: reactive oxygen species in HT29 cells; assay: Oxidative stress measurement with CM-H2DCFDA (DCF); type: cell-based, human; conditions: HT29, 0.25 mM Trolox 2 h, then 10 μM NSC735847 8 h
# Experimental: Oxidative stress was measured in cultured cells by using the probe, chloromethyl-2′,7′ dichlorodihydrofluorescein diacetate (CM-H2DCFDA or DCF) purchased from Life Technologies (Grand Island, NY). […] The cells were loaded with 5 μM DCF in phenol red-free, serum-free medium for 30 min and then the cells were treated with the appropriate drug for the indicated period of time. The cells were then trypsinized and resuspended in serum-containing, phenol red-free medium. The fluorescence of DCF was measured using an Accuri C6 flow cytometer (BD Accuri Cytometers, Ann Arbor, MI) at an excitation wavelength of 488 and emission of 533 ± 30 nm.
# [4] = MTS, 24 h, single agents or combinations
Molecule,IC50 (FHC cells),IC50 (HT29 cells),"selective cytotoxicity toward colon cancer cells vs FHC (HT29 cells; MTS, 24 h)",IC50 (HCT116 cells),"tumor selectivity of apoptosis induction (caspase 3/7, words) [1]",effect of pretreatment on NSC735847-mediated cell death (HT29 cells),also measured
CC1CCC2C(C)C(OCC(COC3OC4OC5(C)CCC6C(C)CCC(C3C)C46OO5)N3CCCCC3)OC3OC4(C)CCC1C32OO4 (stereo not drawn) [(4)],> 25 µM,> 25 µM,more cytotoxic toward HT-29 than FHC cells,> 25 µM,preferentially induced apoptosis in HT-29 compared to FHC cells,–,"cytotoxic activity against HCT-116 cells (HCT116 cells; MTS, 24 h): inactive"
CC1CCC2C(C)C(OCC(COC3OC4OC5(C)CCC6C(C)CCC(C3C)C46OO5)NCc3ccccc3)OC3OC4(C)CCC1C32OO4 (stereo not drawn) [(5)],> 25 µM,15.2 ± 1.12 µM,more cytotoxic toward HT-29 than FHC cells,> 25 µM,preferentially induced apoptosis in HT-29 compared to FHC cells,–,"cytotoxic activity against HCT-116 cells (HCT116 cells; MTS, 24 h): inactive"
"CC(=O)N(O)CCCCCNC(=O)CCC(=O)N(O)CCCCCNC(=O)CCC(=O)N(O)CCCCCN [DFO, deferoxamine, reference compound]",–,–,–,–,–,did not prevent NSC735847-mediated cell death,"effect of pretreatment on NSC735847-mediated ferritin protein expression ([2]; HT29, 100 μM DFO 4 h, then 10 μM NSC735847 24 h): inhibited NSC735847-mediated ferritin expression"
"Cn1cc(-c2ccc3c(c2)CCN3C(=O)Cc2cccc(C(F)(F)F)c2)c2c(N)ncnc21 [GSK2606414, 7-methyl-5-(1-{[3-(trifluoromethyl)phenyl]acetyl}-2,3-dihydro-1H-indol-5-yl)-7H-p yrrolo[2,3-d]pyrimidin-4-amine, reference compound]",–,–,–,–,–,suppressed NSC735847-mediated cell death,"effect of pretreatment on NSC735847-induced caspase 3/7 activity [1]: inhibited caspase 3/7 activity; effect of pretreatment on NSC735847-induced PERK phosphorylation ([2]; HT29, 10 μM pretreatment 1 h, then 10 μM NSC735847 1 h): decreased the phosphorylation of PERK; effect of pretreatment on NSC735847-induced CHOP10 expression [2]: decreased"
"O=C1[O][Pt]2([NH][C@@H]3CCCC[C@H]3[NH]2)[O]C1=O [OX, oxaliplatin, reference compound]",–,–,–,–,–,–,cell death / survival of HT29 cells (HT29 cells; [4]): induced death in a concentration-dependent manner; cell death / survival of HCT116 cells (HCT116 cells; [4]): induced death in a concentration-dependent manner
"O=C(CC(c1ccccc1)c1ccccc1)Cn1ccnc1 [QC-308, reference compound]",–,–,–,–,–,increased the cytotoxicity of NSC735847,–
"Cc1c(C)c2c(c(C)c1O)CCC(C)(C(=O)O)O2 (stereo not drawn) [Trolox, reference compound]",–,–,–,–,–,did not rescue the cells from NSC735847-induced cytotoxicity,effect of pretreatment on NSC735847-induced oxidative stress [3]: significant reduction in oxidative stress
CC1CCC2C(C)C(OCC(COC3OC4OC5(C)CCC6C(C)CCC(C3C)C46OO5)N3CCOCC3)OC3OC4(C)CCC1C32OO4 (stereo not drawn) [compound (1)],> 25 µM,> 25 µM,not selectively cytotoxic toward either colon cancer cell line,> 25 µM,did not exhibit tumor selectivity,–,–
CC1CCC2C(C)C(OCC(COC3OC4OC5(C)CCC6C(C)CCC(C3C)C46OO5)NNC(=O)c3ccncc3)OC3OC4(C)CCC1C32OO4 (stereo not drawn) [compound (2)],23.2 ± 1.04 µM,19.6 ± 1.06 µM,not selectively cytotoxic toward either colon cancer cell line,22.1 ± 1.06 µM,increase in apoptosis in HT29 compared to HCT-116 and FHC cells,–,–
"O=C(/C=C/c1ccccc1)NC(NC(=S)Nc1cccc2cccnc12)C(Cl)(Cl)Cl (stereo not drawn) [salubrinal, reference compound]",–,–,–,–,–,blocked,effect of pretreatment on NSC735847-induced caspase 3/7 activity [1]: blocked; effect of pretreatment on NSC735847-induced CHOP10 expression [2]: blocked CHOP10 expression
"CC(=O)CC(=O)CCC(=O)O [succinylacetone, reference compound]",–,–,–,–,–,rescued the cells from the cytotoxic effects of NSC735847,effect of pretreatment on NSC735847-induced CHOP10 expression [2]: blunted NSC735847-induced CHOP10 expression
HTF: iron-loaded transferrin molecule,–,–,–,–,–,did not enhance the killing effect of NSC735847,–
